According to patent US20230301968A1 (ZEPHAPHARM LTD, priority 2020, published 2023):

Columns and labels:
CYP2C19 = biological target: T1, CYP2C19 (Homo sapiens, UniProt P33261); assay: Cytochrome P450 reaction phenotyping, recombinant CYP2C19; type: in vitro ADME; conditions: for t½: 1 µM substrate, recombinant CYP2C19, NADPH
T1 construct: purchased
Protocol: (§1) The amount of test compound remaining at each time point was analysed by LC-MS/MS. Incubations in control recombinant enzymes were also performed to assess non-enzymatic mediated stability.
(§2) Incubations were also performed using control Bactosomes™ (no cytochrome P450 enzymes present) to reveal any non-enzymatic degradation. Control compounds known to be metabolised specifically by each P450 isoform were included. All incubations were performed singularly for each test compound. […] The reactions were stopped by transferring an aliquot of incubate to quench solvent at the appropriate time points, in a 1:3 ratio. The termination plates were centrifuged at 3,000 rpm for 20 min at 4° C. to precipitate the protein. Following protein precipitation, the sample supernatants were analysed using LC-MS/MS, along with internal standard (1:1 supernatant to internal standard).
(§3) Following correction for any loss in the incubations with the control Bactosomes™, from a plot of In peak area ratio (compound peak area/internal standard peak area) against time, the gradient of the line was determined. Subsequently, half-life (t½) was calculated using the equations below: […]

CYP2D6 = biological target: T2, CYP2D6 (Homo sapiens, UniProt P10635); assay: Cytochrome P450 reaction phenotyping, recombinant CYP2D6; type: in vitro ADME
T2 construct: purchased
T2 sequence (P10635 whole entry): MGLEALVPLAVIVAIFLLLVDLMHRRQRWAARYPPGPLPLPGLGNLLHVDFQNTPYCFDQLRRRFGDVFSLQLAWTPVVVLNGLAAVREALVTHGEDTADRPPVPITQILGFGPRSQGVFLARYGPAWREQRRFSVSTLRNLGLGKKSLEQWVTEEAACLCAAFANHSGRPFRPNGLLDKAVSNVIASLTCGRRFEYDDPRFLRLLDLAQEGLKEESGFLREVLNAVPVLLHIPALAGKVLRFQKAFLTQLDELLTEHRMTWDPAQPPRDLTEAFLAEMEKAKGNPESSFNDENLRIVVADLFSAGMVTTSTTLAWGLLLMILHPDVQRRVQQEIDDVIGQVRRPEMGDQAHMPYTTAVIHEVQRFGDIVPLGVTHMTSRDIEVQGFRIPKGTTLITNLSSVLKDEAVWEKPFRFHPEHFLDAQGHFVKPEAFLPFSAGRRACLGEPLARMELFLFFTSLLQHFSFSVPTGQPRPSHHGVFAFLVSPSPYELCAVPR
Protocol: as §1, §2, §3

human liver microsomes = assay: Metabolic stability in human liver microsomes with or without CYP1A2 inhibitor furafylline; conditions: 10 µM furafylline versus no inhibitor
Protocol: (§4) The amount of test compound remaining at each time point was analysed by LC-MS/MS. An incubation in the absence of NADPH was also performed to assess non-CYP mediated stability.
(§5) In the pre-screen assay, […] 0.1 M phosphate buffer pH 7.4 (final substrate concentration 1 µM) were pre-incubated at 37° C. prior to the addition of NADPH (final concentration 1 mM) to initiate the reaction. A minus cofactor control incubation was included for each compound tested where 0.1 M phosphate buffer pH 7.4 was added instead of NADPH (minus NADPH). […] A minus cofactor control incubation was included for each compound tested where 0.1 M phosphate buffer pH 7.4 was added instead of cofactor (minus NADPH). […] The reactions were stopped by transferring an aliquot of incubate to acetonitrile at the appropriate time points, in a 1:3 ratio. The termination plates were centrifuged at 3,000 rpm for 20 min at 4° C. to precipitate the protein. Following protein precipitation, the sample supernatants were analysed using LC-MS/MS, along with internal standard (1:1 supernatant to internal standard).
(§6) From a plot of In peak area ratio (compound peak area/internal standard peak area) against time, the gradient of the line was determined. Subsequently, half-life and intrinsic clearance were calculated using the equations below: […]

[1] = as above; conditions: human, microsomes
Protocol: as §4, §5, §6

CYP1A2 [2] = assay: as above; conditions: human, microsomes; for microsomal CLint at 1 µM: pH 7.4, CLint
Protocol: as §4, §5, §6

CYP1A2 [3] = biological target: T3, CYP1A2 (Homo sapiens, UniProt P05177); assay: Cytochrome P450 reaction phenotyping, recombinant CYP1A2; type: in vitro ADME
T3 construct: purchased
T3 sequence (P05177 1-516): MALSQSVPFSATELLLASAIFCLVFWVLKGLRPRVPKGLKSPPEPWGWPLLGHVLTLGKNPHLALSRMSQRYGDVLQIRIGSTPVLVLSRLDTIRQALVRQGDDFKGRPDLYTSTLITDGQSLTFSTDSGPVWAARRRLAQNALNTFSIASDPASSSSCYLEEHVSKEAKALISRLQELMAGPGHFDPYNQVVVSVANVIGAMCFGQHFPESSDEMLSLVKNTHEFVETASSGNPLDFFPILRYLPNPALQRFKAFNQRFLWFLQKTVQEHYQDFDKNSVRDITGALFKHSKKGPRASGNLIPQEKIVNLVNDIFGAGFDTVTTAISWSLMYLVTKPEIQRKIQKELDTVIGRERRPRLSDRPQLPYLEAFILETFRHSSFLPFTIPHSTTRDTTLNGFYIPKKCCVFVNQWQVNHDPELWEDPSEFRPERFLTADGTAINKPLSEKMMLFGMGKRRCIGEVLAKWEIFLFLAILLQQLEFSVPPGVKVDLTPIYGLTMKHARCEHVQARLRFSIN
Protocol: as §1, §2, §3

CYP2B6 = biological target: T4, CYP2B6 (Homo sapiens, UniProt P20813); assay: Cytochrome P450 reaction phenotyping, recombinant CYP2B6; type: in vitro ADME
T4 construct: purchased
T4 sequence (P20813 1-491): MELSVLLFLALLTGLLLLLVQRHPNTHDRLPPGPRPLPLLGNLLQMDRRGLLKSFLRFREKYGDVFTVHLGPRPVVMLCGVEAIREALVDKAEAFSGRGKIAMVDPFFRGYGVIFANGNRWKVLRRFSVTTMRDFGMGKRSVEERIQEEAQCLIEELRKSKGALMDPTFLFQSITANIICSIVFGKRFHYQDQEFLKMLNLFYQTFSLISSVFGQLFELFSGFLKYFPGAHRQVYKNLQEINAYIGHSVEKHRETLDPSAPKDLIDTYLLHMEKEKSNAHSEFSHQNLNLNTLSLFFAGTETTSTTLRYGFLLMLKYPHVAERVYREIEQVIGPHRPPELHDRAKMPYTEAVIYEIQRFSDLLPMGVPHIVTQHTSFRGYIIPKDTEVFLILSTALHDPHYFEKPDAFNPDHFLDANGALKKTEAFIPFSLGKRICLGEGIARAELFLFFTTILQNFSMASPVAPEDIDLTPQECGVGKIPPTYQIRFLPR
Protocol: as §1, §2, §3

T1 sequence (P33261 whole entry): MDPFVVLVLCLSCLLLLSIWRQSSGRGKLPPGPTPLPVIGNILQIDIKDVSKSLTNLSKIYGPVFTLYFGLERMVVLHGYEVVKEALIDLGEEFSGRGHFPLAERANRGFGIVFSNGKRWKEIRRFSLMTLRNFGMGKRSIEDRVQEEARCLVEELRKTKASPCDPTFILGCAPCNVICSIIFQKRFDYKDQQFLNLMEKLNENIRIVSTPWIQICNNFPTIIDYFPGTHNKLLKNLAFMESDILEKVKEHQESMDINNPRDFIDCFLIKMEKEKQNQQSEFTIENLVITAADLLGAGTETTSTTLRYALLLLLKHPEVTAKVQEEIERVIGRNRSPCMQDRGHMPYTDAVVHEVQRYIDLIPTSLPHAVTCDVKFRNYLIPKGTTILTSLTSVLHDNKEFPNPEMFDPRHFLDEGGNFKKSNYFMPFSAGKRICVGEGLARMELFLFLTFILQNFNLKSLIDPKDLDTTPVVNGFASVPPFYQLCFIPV

COC(=O)Nc1nc2cc(C(=O)c3ccc(F)cc3)ccc2[nH]1 [Flubendazole, methyl N-[6-(4-fluorobenzoyl)-1H-benzimidazol-2-yl]carbamate]
t½ (CYP2C19): 13.6 h
t½ (CYP2C19; listed as flubendazole): ≥ 2.45 h
Compound Remaining (% of 0 min) (CYP2C19; CYP2C19, 0 min): 100%
Compound Remaining (% of 0 min) (CYP2C19; CYP2C19, 5 min): 99.5%
Compound Remaining (% of 0 min) (CYP2C19; CYP2C19, 15 min): 97.7%
Compound Remaining (% of 0 min) (CYP2C19; CYP2C19, 30 min): 98.8%
Compound Remaining (% of 0 min) (CYP2C19; CYP2C19, 45 min): 95.5%
t½ (CYP2D6; 1 µM substrate, recombinant CYP2D6, NADPH): 2.45 h
Compound Remaining (% of 0 min) (CYP2D6; CYP2D6, 0 min): 100%
Compound Remaining (% of 0 min) (CYP2D6; CYP2D6, 5 min): 93.1%
Compound Remaining (% of 0 min) (CYP2D6; CYP2D6, 15 min): 90.0%
Compound Remaining (% of 0 min) (CYP2D6; CYP2D6, 30 min): 85.6%
Compound Remaining (% of 0 min) (CYP2D6; CYP2D6, 45 min): 78.9%
half-life at 1 µM (CYP2D6; human, pH 7.4, 1 µM substrate, recombinant CYP2D6, NADPH, read-out: t½): ≥ 2.45 h
increase in half-life (human liver microsomes): > 14 times
microsomal CLint at 1 µM ([1]; pH 7.4, CLint, 1 µM substrate, no inhibitor): 50.3 µL/min/mg
microsomal CLint at 1 µM ([1]; pH 7.4, intrinsic clearance (CLint), pre-screen assay, absence of inhibitor): 43.7 µL/min/mg
half-life at 1 µM ([1]; pH 7.4, t½, 1 µM substrate, no inhibitor): 0.46 h
microsomal CLint at 1 µM (CYP1A2 [2]; 1 µM substrate, plus 3 µM furafylline): 14.6 µL/min/mg
microsomal CLint at 1 µM (CYP1A2 [2]; 1 µM substrate, plus 10 µM furafylline): 3.52 µL/min/mg
microsomal CLint at 1 µM (CYP1A2 [2]; 1 µM substrate, plus 30 µM furafylline): 5.39 µL/min/mg
half-life at 1 µM (CYP1A2 [2]; pH 7.4, half-life, 1 µM flubendazole, 10 µM furafylline): 6.6 h
half-life at 1 µM (CYP1A2 [2]; pH 7.4, t½, 1 µM substrate, plus 3 µM furafylline): 1.58 h
half-life at 1 µM (CYP1A2 [2]; pH 7.4, t½, 1 µM substrate, plus 10 µM furafylline): 6.57 h
half-life at 1 µM (CYP1A2 [2]; pH 7.4, t½, 1 µM substrate, plus 30 µM furafylline): 4.28 h
Compound Remaining (% of 0 min) (CYP1A2 [3]; CYP1A2, 0 min): 100%
Compound Remaining (% of 0 min) (CYP1A2 [3]; CYP1A2, 5 min): 38.6%
Compound Remaining (% of 0 min) (CYP1A2 [3]; CYP1A2, 15 min): 1.30%
Compound Remaining (% of 0 min) (CYP1A2 [3]; CYP1A2, 30 min): 0.0440%
Compound Remaining (% of 0 min) (CYP1A2 [3]; CYP1A2, 45 min): 0.002%
half-life at 1 µM (CYP1A2 [3]; human, pH 7.4, 1 µM substrate, recombinant CYP1A2, NADPH, 30 and 45 minute time points excluded, read-out: t½): 2.34 min
Compound Remaining (% of 0 min) (CYP2B6; CYP2B6, 0 min): 100%
Compound Remaining (% of 0 min) (CYP2B6; CYP2B6, 5 min): 96.5%
Compound Remaining (% of 0 min) (CYP2B6; CYP2B6, 15 min): 95.8%
Compound Remaining (% of 0 min) (CYP2B6; CYP2B6, 30 min): 97.8%
Compound Remaining (% of 0 min) (CYP2B6; CYP2B6, 45 min): 104%
half-life at 1 µM (CYP2B6; human, pH 7.4, 1 µM substrate, recombinant CYP2B6, NADPH, minus value = not metabolised, read-out: t½): ≥ 2.45 h
